This note sets out measurements from US7557099B2, “Pyrrolobenzodiazepines as key intermediates in the synthesis of dimeric cytotoxic pyrrolobenzodiazepines” (Spirogen Limited, priority 2004, dated 2009).

What is called GI50 is the concentration at which growth is held to half of that of the control. Low values mean more potent growth inhibition, high ones less potent growth inhibition. Broadly, the EC50 is the concentration at which the effect is half-maximal. A high value points to a need for much substance. One may read the IC50 as the concentration that gives 50% inhibition.

Where two headings read alike, the source gives them in different places.

Assay [1] concerns approximately 60 human tumour cell lines. The assay is described as follows: NCI 60 cell screen, SRB assay. In kind it is cell-based. As to conditions: 48 hour continuous exposure. The method, then: The National Cancer Institute (NCI), Bethesda, Md., USA has available an in vitro cytotoxicity screen which consists of approximately 60 human tumour cell lines against which compounds are tested at a minimum of five concentrations each differing 10-fold. A 48 hour continuous exposure protocol is used, where cell viability or growth is estimated with an SRB protein assay.
The test compounds were evaluated against approximately 60 human tumour cell lines. The NCI screening procedures were described in detail by Monks and co-workers (Monks, A et al., Journal of the National Cancer Institute, 1991, 83, 757). Briefly, cell suspensions were diluted according to the particular cell type and the expected target cell density (5000-40,000 cells per well based on cell growth characteristics), and added by pipette (100 μL) into 96-well microtitre plates. The cells were allowed a preincubation period of 24 hours at 37° C. for stabilisation. Dilutions at twice the intended test concentration were added at time zero in 100 μL aliquots to the wells. The test compounds were evaluated at five 10-fold dilutions (10^−4, 10^−5, 10^−6, 10^−7 and 10^−[…]). The test compounds were incubated for 48 hours in 5% CO2 atmosphere and 100% humidity. The cells were then assayed using the sulphorhodamine B assay. A plate reader was used to read the optical densities and a microcomputer processed the readings into GI50 values (in Moles), which is the dosage required to limit cell growth to 50%.
For orientation: The SRB assay estimates cell density from bound dye.

The next assay deals with linear pBR322 DNA. Nature of the assay: DNA cross-linking, electrophoretic assay (XL50). It counts as biochemical. As to conditions: concentration giving 50% cross-linked plasmid DNA; 2 hours, 37° C., pH 7.2. The method, then: The extent of DNA cross-linking induced by each PBD dimer was determined using the electrophoretic assay method of Hartley, et al. (Hartley, J. A., Berardini, M. D., and Souhami, R. L. (1991) Anal. Biochem. 193, 131-134) based on the principle that, following complete denaturation of linear pBR322 DNA (˜4,300 bp) to the single-stranded (SS) form, an interstrand cross-link results in renaturation to double-stranded (DS) in a neutral gel.
Closed-circular DNA was linearized with HindIII, then dephosphorylated and finally 5′-singly end-labelled using [γ^32P]-ATP and polynucleotide kinase. Reactions containing 30-40 ng of DNA and the test compound were carried out in aqueous TEOA (25 mM triethanolamine, 1 mM EDTA, pH 7.2) buffer at 37° C. in a final volume of 50 μl for 2 hours. Reactions were terminated by addition of an equal volume of stop solution (0.6 M NaOAc, 20 mM EDTA, 100 μg/ml tRNA) followed by precipitation with ethanol. Following centrifugation, the supernatant was discarded and the pellet dried by lyophilization. Samples were re-suspended in 10 μl of strand separation buffer (30% DMSO, 1 mM EDTA, 0.04% bromophenol blue and 0.04% xylene cylanol) and denatured by heating to 90° C. for 2.5 min, followed by immersion in an ice/water bath. Control non-denatured samples were re-suspended in 10 μl of non-denaturing buffer solution (0.6% sucrose, 0.04% bromophenol blue in aqueous TAE buffer [40 mM Tris, 20 mM acetic acid, 2 mM EDTA, pH 8.1]) and loaded directly onto the gel for comparison.
Electrophoresis was carried out for 14-16 h at 40 V using a 0.8% submerged agarose gel (20×25×0.5 cm) in TAE buffer. Gels were dried under vacuum for 2 hour at 80° C. onto one layer each of Whatman 3MM and DE8I filter papers using a BioRad 583 gel dryer. Autoradiographs were obtained after exposure of Hyperfilm-MP film (Amersham plc, U.K.) to the dried gel for either 4 hour with a screen (or over night, without a screen, to obtain a sharper image). Film bands were quantitated using a BioRad GS-670 imaging laser densitometer. Percentage cross-linking was calculated by measuring the total DNA in each lane (summed density for the double-stranded [DS] and single-stranded [SS] bands) relative to the amount of cross-linked DNA (density of DS band alone). A dose-response curve was derived by plotting drug concentration against the determined percentage level of cross-linked DNA which was then analysed to determine the concentration of test compound that results in 50% cross-linked plasmid DNA (XL50).

Assay [2] concerns K562 human chronic myeloid leukaemia cells. Nature of the assay: In vitro cytotoxicity, K562 cells, MTT assay. It counts as cell-based. The method, then: K562 human chronic myeloid leukaemia cells were maintained in RPM1 1640 medium supplemented with 10% fetal calf serum and 2 mM glutamine at 37° C. in a humidified atmosphere containing 5% CO2 and were incubated with a specified dose of drug for 1 hour or 96 hours at 37° C. in the dark. The incubation was terminated by centrifugation (5 min, 300 g) and the cells were washed once with drug-free medium. Following the appropriate drug treatment, the cells were transferred to 96-well microtiter plates (10^4 cells per well, 8 wells per sample). Plates were then kept in the dark at 37° C. in a humidified atmosphere containing 5% CO2. The assay is based on the ability of viable cells to reduce a yellow soluble tetrazolium salt, 3-(4,5-dimethylthiazol-2-yl)-2,5-diphenyl-2H-tetrazolium bromide (MTT, Aldrich-Sigma), to an insoluble purple formazan precipitate. Following incubation of the plates for 4 days (to allow control cells to increase in number by approximately 10 fold), 20 μL of MTT solution (5 mg/mL in phosphate-buffered saline) was added to each well and the plates further incubated for 5 hours. The plates were then centrifuged for 5 minutes at 300 g and the bulk of the medium pipetted from the cell pellet leaving 10-20 μL per well. DMSO (200 μL) was added to each well and the samples agitated to ensure complete mixing. The optical density was then read at a wavelength of 550 nm on a Titertek Multiscan ELISA plate reader, and a dose-response curve was constructed. For each curve, an IC50 value was read as the dose required to reduce the final optical density to 50% of the control value.
Background: Tetrazolium assays rely on reduction of a dye to a coloured formazan, in cell work by metabolically active cells.

Setting [3] is: Homo sapiens, sub-table of 29a-c.
Setting [4] is: Homo sapiens, 1 hr exposure, read-out: IC50 1 hr exposure.
Setting [5] is: Homo sapiens, 96 hr exposure, sub-table of 16e-j, read-out: IC50 96 hr exposure.

On to `C=C1CN2C(=O)c3cc(OC)ccc3N=C[C@H]2C1OCCCCCCCCCCOC1C(=C)CN2C(=O)c3cc(OC)ccc3N=C[C@@H]12` (stereo partly drawn) [Compound 29c, 1,1′-[(Decane-1,10-diyl)dioxy]bis[(11aS)-7-methoxy-2-methylene-1,2,3,11a-tetrahydro-5H-pyrrolo[2,1-c][1,4]benzodiazepine-5-one]], for which, in assay [1] (setting [3]), the GI50 was found to be 0.0132 µM. A half-maximal response in the assay with linear pBR322 DNA (EC50) required 3.9 µM. The IC50 in assay [2] (Homo sapiens, 96 hr exposure, sub-table of 29a-c, read-out: IC50 96 hr exposure) came to 0.1 µM.

Take `COc1ccc2c(c1)N=C[C@H]1C(OCCCCCCCOC3CCN4C(=O)c5ccc(OC)cc5N=C[C@@H]34)CCN1C2=O` (stereo partly drawn) [Compound 9e, 1,1′-[(Heptane-1,7-diyl)dioxy]bis[(11aS)-8-methoxy-1,2,3,11a-tetrahydro-5H-pyrrolo[2,1-c][1,4]benzodiazepine-5-one]]: in assay [1] (Homo sapiens), the GI50 came out at 2.69 µM. In the assay with linear pBR322 DNA, the EC50 was 20 µM. Also, the IC50 in assay [2] (setting [4]) is above 30 µM.

Consider `COc1ccc2c(c1)C(=O)N1CCC(OCCCCCCCCCCCOC3CCN4C(=O)c5cc(OC)ccc5N=C[C@@H]34)[C@@H]1C=N2` (stereo partly drawn) [Compound 16i, 1,1′-[(Undecane-1,11-diyl)dioxy]bis[(11aS)-7-methoxy-1,2,3,11a-tetrahydro-5H-pyrrolo[2,1-c][1,4]benzodiazepine-5-one]], for which it took 0.22 µM to inhibit growth in assay [1] (Homo sapiens) by half (GI50). Moreover, the IC50 in assay [2] (setting [5]) was 0.689 µM.

In turn, `COc1cc2c(cc1OCCCCCOc1cc3c(cc1OC)N=C[C@@H]1CCCN1C3=O)C(=O)N1CCC[C@H]1C=N2` [Compound 9c, 1,11-[(Pentane-1,5-diyl)dioxy]bis[(11aS)-8-methoxy-1,2,3,11a-tetrahydro-5H-pyrrolo[2,1-c][1,4]benzodiazepine-5-one]] returned a GI50 in assay [1] of 10.2 µM. Besides, the IC50 in assay [2] (1 hr exposure, read-out: IC50 1 hr exposure) was above 30 µM.

The compound `COc1ccc2c(c1)C(=O)N1CCC(OCCCOC3CCN4C(=O)c5cc(OC)ccc5N=C[C@@H]34)[C@@H]1C=N2` (stereo partly drawn) [Compound 16a, 1,1′-[(Propane-1,3-diyl)dioxy]bis[(11aS)-7-methoxy-1,2,3,11a-tetrahydro-5H-pyrrolo[2,1-c][1,4]benzodiazepine-5-one]] returned a GI50 in assay [1] (Homo sapiens) of 3.16 µM. Also, the EC50 in the assay with linear pBR322 DNA amounted to 0.05 µM. The 50% inhibitory concentration (IC50) in assay [2] (setting [4]) came out at 12.8 µM.

The compound `COc1ccc2c(c1)N=C[C@H]1C(OCCCCCCCCCCCCOC3CCN4C(=O)c5ccc(OC)cc5N=C[C@@H]34)CCN1C2=O` (stereo partly drawn) [Compound 9j, 1,1′-[(Dodecane-1,12-diyl)dioxy]bis[(11aS)-8-methoxy-1,2,3,11a-tetrahydro-5H-pyrrolo[2,1-c][1,4]benzodiazepine-5-one]] came in with a GI50 in assay [1] (Homo sapiens) of 0.21 µM. In the assay on linear pBR322 DNA, this compound returned an EC50 above 100 µM. Moreover, the IC50 in assay [2] (setting [4]) came to 9.12 µM.

As for `COc1ccc2c(c1)N=C[C@H]1C(OCCCCCCCCCCOC3CCN4C(=O)c5ccc(OC)cc5N=C[C@@H]34)CCN1C2=O` (stereo partly drawn) [Compound 9h, 1,1′-[(Decane-1,10-diyl)dioxy]bis[(11aS)-8-methoxy-1,2,3,11a-tetrahydro-5H-pyrrolo[2,1-c][1,4]benzodiazepine-5-one]], the GI50 in assay [1] (Homo sapiens) was 1.12 µM. In the assay on linear pBR322 DNA, this compound had an EC50 of 0.17 µM. Besides, the concentration for half-maximal inhibition (IC50) in assay [2] (setting [4]) came out at 16.1 µM.

On to `COc1ccc2c(c1)C(=O)N1CCC(OCCCCOC3CCN4C(=O)c5cc(OC)ccc5N=C[C@@H]34)[C@@H]1C=N2` (stereo partly drawn) [Compound 16b, 1,1′-[(Butane-1,4-diyl)dioxy]bis[(11aS)-7-methoxy-1,2,3,11a-tetrahydro-5H-pyrrolo[2,1-c][1,4]benzodiazepine-5-one]], for which halving of growth in assay [1] (Homo sapiens) (GI50) required 2.51 µM. This compound registered an EC50 in the assay on linear pBR322 DNA of 1 µM. In addition, the IC50 in assay [2] (setting [4]) was determined as 2.5 µM.

`C=C1CN2C(=O)c3cc(OC)ccc3N=C[C@H]2C1OCCCCCCCCOC1C(=C)CN2C(=O)c3cc(OC)ccc3N=C[C@@H]12` (stereo partly drawn) [Compound 29a, 1,1′-[(Octane-1,8-diyl)dioxy]bis[(11aS)-7-methoxy-2-methylene-1,2,3,11a-tetrahydro-5H-pyrrolo[2,1-c][1,4]benzodiazepine-5-one]] registered a GI50 in assay [1] (setting [3]) of 0.0138 µM.

`COc1ccc2c(c1)N=C[C@H]1C(OCCCCCCCCOC3CCN4C(=O)c5ccc(OC)cc5N=C[C@@H]34)CCN1C2=O` (stereo partly drawn) [Compound 9f, 1,1′-[(Octane-1,8-diyl)dioxy]bis[(11aS)-8-methoxy-1,2,3,11a-tetrahydro-5H-pyrrolo[2,1-c][1,4]benzodiazepine-5-one]] had a GI50 in assay [1] (Homo sapiens) of 1.17 µM. The EC50 in the assay with linear pBR322 DNA worked out at 1.8 µM. Further, the IC50 in assay [2] (setting [4]) came out at 9.72 µM.

Take `COc1ccc2c(c1)C(=O)N1CCC(OCCCCCCCCCOC3CCN4C(=O)c5cc(OC)ccc5N=C[C@@H]34)[C@@H]1C=N2` (stereo partly drawn) [Compound 16g, 1,1′-[(Nonane-1,9-diyl)dioxy]bis[(11aS)-7-methoxy-1,2,3,11a-tetrahydro-5H-pyrrolo[2,1-c][1,4]benzodiazepine-5-one]]: the GI50 in assay [1] (Homo sapiens) worked out at 0.019 µM. Also, the EC50 in the assay with linear pBR322 DNA was determined as 1.5 µM. The IC50 in assay [2] (setting [5]) came out at 0.026 µM.

Regarding `COc1ccc2c(c1)N=C[C@H]1C(OCCCCCCOC3CCN4C(=O)c5ccc(OC)cc5N=C[C@@H]34)CCN1C2=O` (stereo partly drawn) [Compound 9d, 1,1′-[(Hexane-1,6-diyl)dioxy]bis[(11aS)-8-methoxy-1,2,3,11a-tetrahydro-5H-pyrrolo[2,1-c][1,4]benzodiazepine-5-one]], in assay [1] (Homo sapiens), the GI50 was found to be 4 µM. Further, the IC50 in assay [2] (setting [4]) is above 30 µM.

`COc1ccc2c(c1)N=C[C@H]1C(OCCCCOC3CCN4C(=O)c5ccc(OC)cc5N=C[C@@H]34)CCN1C2=O` (stereo partly drawn) [Compound 9b, 1,1′-[(Butane-1,4-diyl)dioxy]bis[(11aS)-8-methoxy-1,2,3,11a-tetrahydro-5H-pyrrolo[2,1-c][1,4]benzodiazepine-5-one]] came in with a 50% growth inhibitory concentration (GI50) in assay [1] (Homo sapiens) of 28.1 µM. Further, the IC50 in assay [2] (setting [4]) is above 30 µM.

In turn, `COc1ccc2c(c1)C(=O)N1CCC(OCCCCCCCCCCCCOC3CCN4C(=O)c5cc(OC)ccc5N=C[C@@H]34)[C@@H]1C=N2` (stereo partly drawn) [Compound 16j, 1,1′-[(Dodecane-1,12-diyl)dioxy]bis[(11aS)-7-methoxy-1,2,3,11a-tetrahydro-5H-pyrrolo[2,1-c][1,4]benzodiazepine-5-one]] gave a GI50 in assay [1] (Homo sapiens) of 0.15 µM. For the same compound, the IC50 in assay [2] (setting [5]) is 0.645 µM.
